According to patent US20150118214A1, “Pharmaceutical composition containing human cyclooxygenase and doxorubicin or doxorubicin analogue, preparation method therefor and use thereof in preparing drugs” (priority 2012, published 2015):

How the values were obtained:
Format in all cases: in vivo, human
[1] = system: nephritis patients; assay: treatment of nephritis patients, rates by traditional standard; details: six or more cycles, course of seven days
From the text: Containing native cyclooxygenase (COX-2) doxorubicin pharmaceutical compositions of natural (atm) doxorubicin or a natural substance in the class of drugs for treating nephritis application preparation, nephritis patients diagnosed according to the usual Standard diagnosis; “effective”, “markedly”, “cure” and other standards are in accordance with the traditional standard. Dose of the drug present invention are: adult three times daily 1.8 g. Course of seven days. When six or more cycles, the treatment effect of contrast in the following table: […]

[2] = system: cancer (lymphoma) patients; assay: treatment of tumors, cancer (lymphoma) patients
From the text: Containing native human cyclooxygenase (COX-2), doxorubicin natural (atm) or natural substance class doxorubicin in the preparation of a pharmaceutical composition of a medicament for the treatment of tumors, cancer (lymphoma) patients diagnosed is the usual criteria for diagnosis; “effective”, “cured”, “cure” and the like in accordance with conventional criteria standards. Dose of the drug present invention are: adult three times a day, every 1.8 go for 7 days. When eight or more cycles, the treatment effect of contrast in the following table: […]

[3] = system: general inflammation in patients; assay: general anti-inflammatory analgesic use, general inflammation patients; details: two or more cycles
From the text: Containing native human cyclooxygenase (COX-2), doxorubicin natural (atm) or a pharmaceutical composition of doxorubicin substances of natural origin as a general anti-inflammatory analgesic drugs applied, general inflammation in patients diagnosed according to the usual criteria for diagnosis; “effective”, “cured”, “cure” and the like in accordance with conventional criteria standards. Dose of the drug present invention are: adult three times daily 1.8 g. Course of seven days When two or more cycles, the treatment effect of contrast in the following table: […]

Compound: CC(C)(C)NCC(O)COc1ccccc1C#N (stereo not drawn) [Bunitrolol]
- Markedly [1]: 59%
- Effective ([1]; invention drug adult three times daily 1.8 g): 93.2%

Compound: CC(=O)O[C@H]1C(=O)[C@@]2(C)[C@H]([C@H](OC(=O)c3ccccc3)[C@]3(O)C[C@H](OC(=O)[C@H](O)[C@@H](NC(=O)c4ccccc4)c4ccccc4)C(C)=C1C3(C)C)[C@]1(OC(C)=O)CO[C@@H]1C[C@@H]2O [Paclitaxel]
- Cure ([2]; eight or more cycles): 16.3%
- Invalid ([2]; eight or more cycles): 2.3%
- Markedly ([2]; eight or more cycles): 32.6%
- Effective ([2]; eight or more cycles of 7 days, invention drug adult three times a day 1.8 g): 48.8%

Compound: [H]/N=C(/N)N[C@H]1[C@H](O)[C@@H](O)[C@H](O[C@@H]2O[C@@H](C)[C@](O)(C=O)[C@H]2O[C@@H]2O[C@@H](CO)[C@H](O)[C@@H](O)[C@@H]2NC)[C@@H](N/C(N)=N\[H])[C@@H]1O [Streptomycin]
- Invalid [3]: 17.14%
- Markedly [3]: 78.57%
- Effective ([3]; course of seven days, invention drug adult three times daily 1.8 g): 14.29%
